Assay results published in PMC6095594, “Pre-clinical evaluation of quinoxaline-derived chalcones in tuberculosis” (PLoS ONE, 2018).
In brackets after ≈: the same amount, converted by molar mass. Several values for one entry are separate records, joined by “and”; a condition that tells them apart may be missing. Equal values may be shown once. Read-outs that look alike come from different tables or passages of the source.

Assays:
[1] = system: S. typhimurium TA97a; assay: Salmonella/microsome mutagenicity test
Procedure: Salmonella typhimurium strains TA98, TA97a, TA100, TA1535, and TA102 were provided by MOLTOX® (Molecular Toxicology Inc. USA). Mutagenicity was assayed according to the pre-incubation procedure following the recommendation described in Mortelmans and Zieger (2000). […] Briefly, 100 μL of test bacterial cultures (1–2 x 10^9 cells/mL) were incubated at 37 °C with different concentrations of N9 (10–400 μg/plate) in the presence or absence of S9 mix, for 20 min, without shaking. […] 2-aminoanthracene (2-AA, 5 μg/plate) was used as positive control for all strains in the presence of metabolic activation (with S9 mix). […] Plates were incubated in the dark at 37 °C for 48 h before counting the revertant colonies. Assays were repeated twice and the plating for each concentration was conducted in triplicate. Data were evaluated by one-way analysis of variance (ANOVA), followed by Dunnett's post-test, using GraphPad Prism 5.0 (GraphPad, San Diego, CA, USA).

[2] = system: M. tuberculosis H37Rv strain; assay: microbe, parasite or virus in culture; type: cell-based
[3] = system: M. tuberculosis pan-susceptible clinical isolate CDCT-28; assay: microbe, parasite or virus in culture; type: cell-based; details: Mycobacterium tuberculosis
[4] = system: M. tuberculosis H37Rv; assay: Checkerboard assay, two-drug combination with REMA readout; type: cell-based, Mycobacterium tuberculosis; details: for MIC Combined: checkerboard, three independent experiments

**Q.** Which “MI: mutagenic index” value ([1]; +S9, 10 μg/plate) does the source give for `COc1ccc(OC)c(C(=O)/C=C/c2ccc3nccnc3c2)c1` [N9] here?
**A.** 1.11

**Q.** And the Number of revertants/plate ([1]; +S9, 10 μg/plate)?
**A.** 128.0±12.1 Rev/plate

**Q.** What about the “MI: mutagenic index” value ([1]; +S9, 50 μg/plate) of the same molecule?
**A.** 0.92

**Q.** And the Number of revertants/plate ([1]; +S9, 50 μg/plate)?
**A.** 106.0±14.2 Rev/plate

**Q.** And the “MI: mutagenic index” value ([1]; +S9, 100 μg/plate)?
**A.** 0.98

**Q.** And the Number of revertants/plate ([1]; +S9, 100 μg/plate)?
**A.** 113.5±5.0 Rev/plate

**Q.** And the “MI: mutagenic index” value ([1]; +S9, 200 μg/plate)?
**A.** 0.71

**Q.** And the Number of revertants/plate ([1]; +S9, 200 μg/plate)?
**A.** 82.0±1.0 Rev/plate

**Q.** And the “MI: mutagenic index” value ([1]; +S9, 400 μg/plate)?
**A.** 0.90

**Q.** And the Number of revertants/plate ([1]; +S9, 400 μg/plate)?
**A.** 104.0±28.8 Rev/plate

**Q.** What about the “MI: mutagenic index” value ([1]; -S9, 10 μg/plate) of the same molecule?
**A.** 1.14

**Q.** And the Number of revertants/plate ([1]; -S9, 10 μg/plate)?
**A.** 145.7±20.3 Rev/plate

**Q.** And the “MI: mutagenic index” value ([1]; -S9, 50 μg/plate)?
**A.** 0.98

**Q.** What about the Number of revertants/plate ([1]; -S9, 50 μg/plate) of the same molecule?
**A.** 125.0±12.5 Rev/plate

**Q.** What about the “MI: mutagenic index” value ([1]; -S9, 100 μg/plate) of the same molecule?
**A.** 0.93

**Q.** And the Number of revertants/plate ([1]; -S9, 100 μg/plate)?
**A.** 118.0±8.2 Rev/plate

**Q.** And the “MI: mutagenic index” value ([1]; -S9, 200 μg/plate)?
**A.** 0.98

**Q.** What about the Number of revertants/plate ([1]; -S9, 200 μg/plate) of the same molecule?
**A.** 124.3±13.3 Rev/plate

**Q.** And the “MI: mutagenic index” value ([1]; -S9, 400 μg/plate)?
**A.** 1.05

**Q.** And the Number of revertants/plate ([1]; -S9, 400 μg/plate)?
**A.** 134.0±3.6 Rev/plate

**Q.** And the MIC ([2]; H37Rv)?
**A.** 3.13 µg/mL (≈ 9.77 µM)

**Q.** And the MIC ([2]; Mycobacterium tuberculosis, H37RV, read-out: MIC)?
**A.** 3.13 to 12.5 µg/mL (≈ 9.77 to 39 µM)

**Q.** And the MIC ([2]; Mycobacterium tuberculosis, read-out: MICs, M. tuberculosis H37Rv strain, and clinical isolates (summary))?
**A.** 1.56 to 3.13 µg/mL (≈ 4.87 to 9.79 µM)

**Q.** What about the MIC [3] of the same molecule?
**A.** 1.56 µg/mL (≈ 4.87 µM)

**Q.** What about the “FICI (fractional inhibitory concentration index)” value ([4]; N9 combined with MFX) of the same molecule?
**A.** below 0.5

**Q.** What about the “MIC Combined” value ([4]; combination N9 + EMB) of the same molecule?
**A.** 0.78 µg/mL

**Q.** What about the “MIC Combined” value ([4]; combination N9 + INH) of the same molecule?
**A.** 0.78 µg/mL

**Q.** And the “MIC Combined” value ([4]; combination N9 + RIF)?
**A.** 0.78 µg/mL and 1.56 µg/mL
